Values after ≈ are worked out from the molar mass of the structure shown. Square brackets hold non-standard residues; d marks the D form. Peptide text beside a SMILES is read from it.
How the values were obtained:
[1] = test system: S. aureus ATCC 29213; experiment: MIC, broth dilution; type: cell-based, Staphylococcus aureus; conditions: Table 5; STIP3 variants, highest concentration 100 μg/mL
In short: (§1)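 Peptides (95% purity) were serially diluted 2-fold and mixed with bacteria diluted to OD 6×10^−4 in cation-adjusted Mueller Hinton broth. Standing cultures were incubated overnight at 37° C. MIC was the lowest peptide concentration with no observed growth.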

[2] = test system: S. aureus ATCC BAA-41 (MRSA SCCmec type II); experiment: MIC, broth dilution; type: cell-based, Staphylococcus aureus; conditions: Table 5; STIP3 variants, highest concentration 100 μg/mL
In short: as §1

[3] = test system: S. aureus ATCC BAA-2094 (MRSA SCCmec type V); experiment: MIC, broth dilution; type: cell-based, Staphylococcus aureus; conditions: Table 5; STIP3 variants, highest concentration 100 μg/mL
In short: as §1

[4] = test system: S. aureus ATCC BAA-1683 (MRSA SCCmec type IV); experiment: MIC, broth dilution; type: cell-based, Staphylococcus aureus; conditions: Table 5; STIP3 variants, highest concentration 100 μg/mL
In short: as §1

[5] = test system: S. aureus ATCC BAA-2313 (MRSA SCCmec type XI); experiment: MIC, broth dilution; type: cell-based, Staphylococcus aureus; conditions: Table 5; STIP3 variants, highest concentration 100 μg/mL
In short: as §1

[6] = test system: S. aureus ATCC BAA-44 (MRSA SCCmec type I); experiment: MIC, broth dilution; type: cell-based, Staphylococcus aureus; conditions: Table 5; STIP3 variants, highest concentration 100 μg/mL
In short: as §1

[7] = test system: S. aureus ATCC BAA-42 (MRSA SCCmec type VI); experiment: MIC, broth dilution; type: cell-based, Staphylococcus aureus; conditions: Table 5; STIP3 variants, highest concentration 100 μg/mL
In short: as §1

[8] = test system: S. aureus ATCC 33592 (MRSA SCCmec type III); experiment: MIC, broth dilution; type: cell-based, Staphylococcus aureus; conditions: Table 5; STIP3 variants, highest concentration 100 μg/mL
In short: as §1

[9] = test system: MRSA ATCC 33592; experiment: SYTOX Green membrane integrity assay; type: cell-based, Staphylococcus aureus; conditions: one fourth to four-fold the MIC
Method: (§2) Membrane disruption and depolarization are commonly reported mechanisms of AMP action. Two indirect assays that rely on fluorescent dyes were employed to assess the interaction of STIP3-29 and D-STIP3-29 with bacterial membranes. First, changes to SYTOX fluorescence was measured when MRSA ATCC 33592 was treated with increasing peptide concentrations ranging from one fourth to four-fold the MIC. […] Next, DiSC3(5), a cationic dye that binds to polarized membranes was used to report on possible depolarization related to AMP treatment. […] Thus, without wishing to be bound by theory, a more conservative explanation of the results is that the cationic peptides increase membrane permeability to SYTOX and that the like-charge of the AMPs to the reporter of polarization may confound the interpretation of the indirect assay. For example, the AMPs may simply displace the self-quenching DiSC3(5) molecules from the membrane surface without causing depolarization.

[10] = test system: S. aureus / MRSA (ATCC MP-2 panel); type: cell-based, Staphylococcus aureus; conditions: in words
In short: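 MIC by broth microdilution in cation-adjusted Mueller Hinton broth: cultures diluted to OD 6×10^−4 and exposed to 2-fold peptide dilution series, standing overnight at 37° C. MIC = lowest peptide concentration with no visible growth. Panel: one methicillin-sensitive S. aureus plus 7 MRSA strains of distinct SCCmec genotypes.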

[11] = Circular dichroism spectroscopy; type: physicochemical; conditions: CD, 50% (v/v) TFE
In short: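 Secondary structure of peptides dissolved in water at 0.3–0.5 mg/mL was assessed by CD. Spectra were recorded from 180 to 260 nm at room temperature in a 0.1 cm quartz cuvette; water and 50% (v/v) TFE conditions were compared.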

[12] = test system: C. albicans Y537; experiment: MIC, YPD broth; type: cell-based, Candida albicans; conditions: Table 8
[13] = test system: C. albicans MYA-2876; experiment: MIC, YPD broth; type: cell-based, Candida albicans; conditions: Table 8
In short: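 Minimum inhibitory concentrations against Candida albicans were determined in YPD broth (10 g/L yeast extract, 20 g/L peptone, 20 g/L dextrose) using peptides of 95% purity. A 180 μl volume of diluted yeast was combined with 20 μl of peptide in a 2-fold dilution series in 96-well plates, with sterile water as control, then incubated standing overnight at 37° C.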

[14] = test system: HeLa cells; type: cell-based; conditions: 24 h, alamarBlue
Method: Peptide cytotoxicity. In vitro cytotoxicity was measured using the 3D EpiDerm skin tissues and HeLa Cells using a fluorescent reporter of cell viability, alamarBlue (ThermoFisher Scientific). 3D EpiDerm skin tissues (MatTek EPI-200-AFAB) were transferred to a 12 well plate containing 600 μL of AFAB-assay medium supplemented with 10% v/v alamarBlue. […] HeLa cells were seeded in a 96-well plate (2×10^4 cells/per well) and incubated overnight at 37° C. and 5% CO2 in a humidified incubator to prepare wells at ˜50% confluency of adherent cells. After the incubation, spent DMEM was removed and cells were washed with PBS. alamarBlue-containing medium was prepared by mixing Phenol Red-free DMEM with alamarBlue solution at a 9:1 ratio and a 180 μl volume was added to each well. Cells were treated with peptides varying from 3.25 to 200 μg/mL and then incubated for 24 h. The fluorescence intensities of treated cultures were normalized to values measured for an untreated control group. After the 24 h incubation period, alamarBlue fluorescence was measured at 590 nm upon excitation at 560 nm using Varioskan Lux plate reader (Thermo Scientific) plate reader.

[15] = test system: MRSA ATCC 33592; experiment: DiSC3(5) membrane polarization assay; type: cell-based, Staphylococcus aureus; conditions: 1.56 to 25 μg/mL
Method: as §2

Compound: CC[C@@H](C)[C@@H](NC(=O)[C@@H](Cc1c[nH]c2ccccc12)NC(=O)[C@@H](CCCCN)NC(=O)[C@H](NC(=O)[C@@H](CC(C)C)NC(=O)CNC(=O)CNC(=O)[C@H](NC(=O)[C@H](N)[C@H](C)O)C(C)C)C(C)C)C(=O)N[C@H](CC(C)C)C(=O)N[C@H](CCCCN)C(=O)N[C@@H](C(=O)N[C@@H](C(=O)N[C@H](CCCCN)C(=O)N[C@H](CCCCN)C(=O)N[C@H](Cc1ccccc1)C(=O)N[C@H](C)C(N)=O)C(C)C)[C@H](C)O [D-STIP3-29, TVGGLVKWILKTVKKFA-NH2] (H-[dT][dV]GG[dL][dV][dK][dW][dI][dL][dK][dT][dV][dK][dK][dF][dA]-NH2; N-terminus assumed)
- MIC S. aureus ATCC 29213 [1]: 6.25 µg/mL (≈ 3.31 µM)
- MIC S. aureus ATCC BAA 41 (II) [2]: 6.25 µg/mL (≈ 3.31 µM)
- MIC S. aureus ATCC BAA 2094 (V) [3]: 6.25 µg/mL (≈ 3.31 µM)
- MIC S. aureus ATCC BAA 1683 (IV) [4]: 6.25 µg/mL (≈ 3.31 µM)
- MIC S. aureus ATCC BAA 2313 (XI) [5]: 6.25 µg/mL (≈ 3.31 µM)
- MIC S. aureus ATCC BAA 44 (I) [6]: 12.5 µg/mL (≈ 6.62 µM)
- MIC S. aureus ATCC BAA 42 (VI) [7]: 6.25 µg/mL (≈ 3.31 µM)
- MIC S. aureus ATCC 33592 (III) [8]: 6.25 µg/mL (≈ 3.31 µM)
- SYTOX fluorescence change [9]: rapid and concentration dependent increase in SYTOX fluorescence
- activity relative to the L-enantiomer [10]: just as active as the L-enantiomer
- α helicity (%) [11]: 47%
- MIC C. albicans Y537 [12]: 50 µg/mL (≈ 26.5 µM)
- MIC C. albicans MYA-2876 [13]: 50 µg/mL (≈ 26.5 µM)
- IC50, HeLa cell survival [14]: 39 ± 3 µg/mL (≈ 20.7 µM)
- DiSC3(5) fluorescence change [15]: dose-dependent increase in fluorescence
